{
  "source": "BindingDB's records for doi:10.1021/acsmedchemlett.8b00149",
  "about": "(Merck, 2018)",
  "target": "Free fatty acid receptor 1 (Homo sapiens, UniProt O14842)",
  "sequence (O14842 whole entry)": "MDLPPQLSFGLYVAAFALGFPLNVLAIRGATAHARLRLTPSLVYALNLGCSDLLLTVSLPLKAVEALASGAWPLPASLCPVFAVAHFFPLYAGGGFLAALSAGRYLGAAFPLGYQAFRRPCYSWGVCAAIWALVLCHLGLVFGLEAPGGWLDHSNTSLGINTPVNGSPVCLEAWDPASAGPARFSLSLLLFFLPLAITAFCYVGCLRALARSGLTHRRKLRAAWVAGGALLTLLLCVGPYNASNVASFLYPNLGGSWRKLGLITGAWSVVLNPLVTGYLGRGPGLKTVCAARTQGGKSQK",
  "experiment": "Agonist activity at recombinant human GPR40 expressed in HEK293 cells assessed as increase in IP1 accumulation measured after 60 mins by HTRF assay",
  "data": [
    {"smiles": "COc1cc(-c2cnc(C3CCc4ccc([C@H](C5CC5)[C@H](C)C(=O)O)cc4O3)c(F)c2)c(F)cn1", "note": "(stereo partly specified)", "values": [
      {"measurement": "EC50", "value": 1.6, "unit": "nM"}
    ]}
  ]
}
